Experimental data taken from patent US12552802B2, “Fused [7,5] bicyclic pyrazole derivatives and methods of use thereof for the treatment of herpesviruses” (Merck Sharp & Dohme LLC, priority 2020, dated 2026).
pEC50, pIC50: −log10 of the molar value.

Experiments:
[1] = molecular target: T1, Human cytomegalovirus (HCMV) DNA polymerase (Human cytomegalovirus, UniProt P08546); test: HCMV polymerase assay; type: biochemical; conditions: polymerase 0.2 nM, AlphaLISA detection; read-out: CMV (IC50)
T1 construct: made in house; host or cells: SF21 insect cells (baculovirus vector)
T1 sequence (P08546 whole entry): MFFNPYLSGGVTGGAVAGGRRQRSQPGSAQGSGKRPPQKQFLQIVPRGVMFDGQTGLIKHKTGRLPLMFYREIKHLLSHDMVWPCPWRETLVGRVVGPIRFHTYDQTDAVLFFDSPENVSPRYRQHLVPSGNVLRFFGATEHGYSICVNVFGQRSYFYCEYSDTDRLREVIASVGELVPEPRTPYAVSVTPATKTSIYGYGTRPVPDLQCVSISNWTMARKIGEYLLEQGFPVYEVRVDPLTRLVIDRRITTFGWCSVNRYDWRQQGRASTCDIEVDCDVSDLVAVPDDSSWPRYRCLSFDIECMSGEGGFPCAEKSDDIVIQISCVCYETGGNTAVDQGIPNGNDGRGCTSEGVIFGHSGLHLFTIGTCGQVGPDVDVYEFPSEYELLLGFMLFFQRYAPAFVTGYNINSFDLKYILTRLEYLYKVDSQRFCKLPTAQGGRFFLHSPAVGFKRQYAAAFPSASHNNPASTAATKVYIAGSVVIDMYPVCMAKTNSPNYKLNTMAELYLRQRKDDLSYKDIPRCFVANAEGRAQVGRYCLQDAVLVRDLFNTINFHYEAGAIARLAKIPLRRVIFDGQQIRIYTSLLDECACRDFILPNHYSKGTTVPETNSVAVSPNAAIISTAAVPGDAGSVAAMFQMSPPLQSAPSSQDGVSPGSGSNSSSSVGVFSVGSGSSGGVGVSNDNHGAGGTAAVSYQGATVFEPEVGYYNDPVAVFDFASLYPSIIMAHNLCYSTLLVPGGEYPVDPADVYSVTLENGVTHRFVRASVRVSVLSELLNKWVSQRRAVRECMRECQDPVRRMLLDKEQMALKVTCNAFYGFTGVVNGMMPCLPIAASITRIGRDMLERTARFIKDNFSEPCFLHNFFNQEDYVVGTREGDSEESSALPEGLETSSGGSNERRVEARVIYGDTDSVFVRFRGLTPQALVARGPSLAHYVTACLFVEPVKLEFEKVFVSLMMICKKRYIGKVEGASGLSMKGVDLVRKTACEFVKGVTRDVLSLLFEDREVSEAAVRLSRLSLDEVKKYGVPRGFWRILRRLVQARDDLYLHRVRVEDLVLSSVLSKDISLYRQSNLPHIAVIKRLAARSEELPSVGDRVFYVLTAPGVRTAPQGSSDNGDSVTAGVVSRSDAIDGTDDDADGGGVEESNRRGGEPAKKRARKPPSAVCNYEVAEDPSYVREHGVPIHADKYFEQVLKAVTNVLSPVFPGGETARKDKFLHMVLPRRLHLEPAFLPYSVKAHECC
Experimental: (§1) Human cytomegalovirus (HCMV) and varicella zoster virus (VZV) DNA polymerases were expressed via baculovirus vector in SF21 cells and purified. Heterodimeric nucleic acid substrate used in the herpesvirus polymerase reactions was generated by annealing a 59-mer template to a 17-mer digoxigenin-labeled primer. Polymerase (HCMV final concentration of 0.2 nM; VZV final concentration of 0.4 nM) was combined with an inhibitor compound or DMSO in assay buffer (10 mM HEPES, pH 7.5, 25 mM KCl, 25 mM NaCl, 5 mM MgCl2, 5% glycerol, 0.67 mg/ml bovine serum albuminutes (albuminate?), and 1 mM tris(2-carboxyethyl)phosphine), and this mixture was pre-incubated for 30 minutes at room temperature in 384-well microtiter plates. The polymerization reaction was initiated by the addition of template/primer substrate (final concentration: 1.6 nM), and dNTPs (final concentration: 24 nM dCTP, 24 nMdGTP, 16 nM dATP, 16 nM dTTP, and 0.8 nM biotin-dUTP). After 60 minutes incubation at 37° C., reactions were terminated with quench buffer (25 mM HEPES pH 7.5, 100 mM NaCl, 0.25% Tween-20, 12 mM EDTA, and 1 mg/ml bovine serum albumin). Incorporation of biotinylated UTP was detected with 2.5-5 ug/ml anti-DIG AlphaLISA acceptor beads and 5-10 ug/ml streptavidin AlphaLISA donor beads (Perkin Elmer). Compound effects were normalized to the window defined by the controls (DMSO only and pre-quenched wells), and were fit using a 4-parameter algorithm to report an IC50.

[2] = molecular target: T2, varicella zoster virus (VZV) DNA polymerase (Varicella-zoster virus, UniProt P09252); test: VZV polymerase assay; type: biochemical; conditions: polymerase 0.4 nM, AlphaLISA detection
T2 construct: made in house; host or cells: SF21 insect cells (baculovirus vector)
T2 sequence (P09252 whole entry): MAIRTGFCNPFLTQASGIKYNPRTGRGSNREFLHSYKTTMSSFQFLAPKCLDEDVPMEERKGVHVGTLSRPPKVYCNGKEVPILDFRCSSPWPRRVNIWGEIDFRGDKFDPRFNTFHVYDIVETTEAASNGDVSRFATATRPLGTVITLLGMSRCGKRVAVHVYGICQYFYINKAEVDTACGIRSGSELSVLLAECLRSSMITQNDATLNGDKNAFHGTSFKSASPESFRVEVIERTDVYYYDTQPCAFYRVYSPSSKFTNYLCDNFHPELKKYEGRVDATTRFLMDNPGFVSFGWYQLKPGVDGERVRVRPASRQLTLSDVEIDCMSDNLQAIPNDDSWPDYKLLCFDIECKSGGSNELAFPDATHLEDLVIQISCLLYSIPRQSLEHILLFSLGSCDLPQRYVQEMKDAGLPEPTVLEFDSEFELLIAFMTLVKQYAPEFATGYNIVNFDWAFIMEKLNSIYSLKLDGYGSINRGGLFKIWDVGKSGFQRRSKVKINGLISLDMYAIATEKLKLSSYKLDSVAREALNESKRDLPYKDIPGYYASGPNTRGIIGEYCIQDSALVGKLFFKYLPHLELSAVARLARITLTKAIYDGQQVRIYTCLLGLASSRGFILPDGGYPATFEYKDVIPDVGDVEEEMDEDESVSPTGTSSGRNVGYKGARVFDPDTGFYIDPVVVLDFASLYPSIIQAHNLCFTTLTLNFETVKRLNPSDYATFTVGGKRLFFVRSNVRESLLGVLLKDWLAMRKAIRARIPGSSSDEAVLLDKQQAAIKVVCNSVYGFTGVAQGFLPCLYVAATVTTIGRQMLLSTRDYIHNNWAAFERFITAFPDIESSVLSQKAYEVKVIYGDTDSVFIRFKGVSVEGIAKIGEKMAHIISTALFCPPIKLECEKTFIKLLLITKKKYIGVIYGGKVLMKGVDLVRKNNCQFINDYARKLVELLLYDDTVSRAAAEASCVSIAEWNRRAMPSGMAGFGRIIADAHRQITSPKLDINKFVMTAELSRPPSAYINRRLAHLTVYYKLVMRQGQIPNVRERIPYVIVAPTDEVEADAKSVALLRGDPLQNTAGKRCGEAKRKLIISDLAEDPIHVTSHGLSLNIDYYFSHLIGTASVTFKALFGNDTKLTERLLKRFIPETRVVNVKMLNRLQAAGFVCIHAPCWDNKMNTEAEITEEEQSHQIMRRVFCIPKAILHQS
Experimental: as §1

HCMV Strain AD169 = test: Viral qPCR assay, CMV in MRC5 cells; type: cell-based, Human cytomegalovirus; conditions: Human betaherpesvirus 5, AD169, ~72 hrs, viral genome copies by qPCR, read-out: CMV MRC5 Cell (EC50)
Experimental: (§2) MRC5 cells, Vero cells, and MeWo cells were obtained from ATCC and were maintained at 37° C./5% CO2/90% relative humidity in Minimal Essential Medium with 10% fetal bovine serum, […] L-glutamine, 100 units/ml penicillin and 100 ug/ml streptomycin. Assay plates were prepared by dispensing compounds dissolved in DMSO into wells of 384 well collagen-coated plates using an ECHO acoustic dispenser. Each compound was tested in a 10-point, serial 3-fold dilution. Controls included uninfected cells and infected cells treated only with DMSO. Assays were initiated by mixing selected cells, in suspension, with virus, and dispensing 50 μl/well infected cells to pre-plated compounds. Plates were incubated at 37° C./5% CO2/90% relative humidity for ˜72 hrs to permit genomic replication, and infected cells were lysed by the addition of an equal volume of lysis buffer (10 mM Tris-HCl, pH8, 50 mM KCl, 2 mM MgCl2, 0.45% NP-40, 0.45% Tween-20, and 100 μg/ml proteinase K). […] Levels of a viral gene and of the cellular control, PPIA (Thermo Fisher Assay ID=Hs04194521_s1), were measured in separate 10 μL qPCR assays using TaqMang Gene Expression Master Mix (Applied Biosystems), and an 7900HT Fast Real-Time PCR System with 384-Well Block Module. 7-point, serial 10-fold dilutions of a plasmid standard were run on each plate to generate a standard curve, and genome copies numbers were calculated by plotting experimental Ct onto linear regression of the standard curve. […] Calculated % effects were fit using a 4-parameter algorithm, and EC50 was reported.
(§3) MRC5 cells, Vero cells, and MeWo cells were obtained from ATCC and were maintained at 37° C./5% CO2/90% relative humidity in Minimal Essential Medium with 10% fetal bovine serum, […] L-glutamine, 100 units/ml penicillin and 100 ug/ml streptomycin. […] Levels of a viral gene were measured in 10 μL qPCR assays using TaqMang Gene Expression Master Mix (Applied Biosystems), and an 7900HT Fast Real-Time PCR System with 384-Well Block Module. […]

VZV = test: Viral qPCR assay, VZV in MeWo cells; type: cell-based, varicella zoster virus; conditions: Human alphaherpesvirus 3, ~72 hrs, viral genome copies by qPCR, read-out: VZV MEWO Cell (IC50)
Experimental: as §2, §3

HSV-1 Strain F = test: Viral qPCR assay, HSV1 in Vero cells; type: cell-based; conditions: Human alphaherpesvirus 1, ~72 hrs, viral genome copies by qPCR, read-out: HSV1 VERO Cell (EC50)
Experimental: as §2, §3

HSV2 = test: Viral qPCR assay, HSV2 in Vero cells; type: cell-based; conditions: Human alphaherpesvirus 2, ~72 hrs, viral genome copies by qPCR, read-out: HSV2 VERO Cell (EC50)
Experimental: as §2, §3

**Q.** `Cc1nnn(C)c1CN1CCc2c(C(=O)NCc3ccc(Cl)cc3)nn(C)c2CC1` [Compound 3] was tested. Which pIC50 [1] did it give?
**A.** 6.09

**Q.** And the pIC50 [2]?
**A.** 6.43

**Q.** What about the pEC50 (HCMV Strain AD169) of the same compound?
**A.** 4.91

**Q.** And the pIC50 (VZV)?
**A.** 5.84

**Q.** What about the pEC50 (HSV-1 Strain F) of the same compound?
**A.** 5.34

**Q.** And the pEC50 (HSV2)?
**A.** 5.11

**Q.** With `Cn1nc(C(=O)NCc2ccc(Cl)cc2)c2c1CCN(C[C@H]1COC(=O)N1)CC2` [Compound 1] as the compound, how does the pIC50 [1] read?
**A.** 6.10

**Q.** What about the pIC50 [2] of the same compound?
**A.** 6.59

**Q.** What about the pEC50 (HCMV Strain AD169) of the same compound?
**A.** 5.43

**Q.** And the pIC50 (VZV)?
**A.** 5.71

**Q.** And the pEC50 (HSV-1 Strain F)?
**A.** 5.48

**Q.** And the pEC50 (HSV2)?
**A.** 5.10

**Q.** `Cn1nc(C(=O)NCc2ccc(Cl)cc2)c2c1CCN(C[C@H]1CCC(=O)N1)CC2` [Compound 2] was tested. Which pIC50 [1] did it give?
**A.** 6.12

**Q.** And the pIC50 [2]?
**A.** 6.60

**Q.** What about the pEC50 (HCMV Strain AD169) of the same compound?
**A.** 5.06

**Q.** And the pIC50 (VZV)?
**A.** 5.52

**Q.** What about the pEC50 (HSV-1 Strain F) of the same compound?
**A.** 5.49

**Q.** And the pEC50 (HSV2)?
**A.** 5.25
